Test results as given in US20050032863A1, “Method of treating or preventing central nervous system disorders with compounds having selectivity for the alpha 3 subunit of the benzodiazepine receptor” (priority 2003, published 2005).
“And” between values parts separate entries of the source, which are not always exact repeats. Equal values may be shown once. “Also recorded” adds a separate entry of the source.

Key:
[1] = tested on: locomotor activity; conditions: open field test and different animal models of anxiety; cited from earlier work
[2] = target: T1, recombinant rat α2β2γ2 GABAA receptors (Rattus norvegicus, UniProt P23576); test: Whole-cell patch-clamp, modulation of GABA (EC20)-induced currents in transfected HEK 293 cells, α2β2γ2; type: cell-based; conditions: α2β2γ2
T1 construct: expressed in transfected cells; host or cells: HEK 293
Experimental: (§1) For electrophysiological recording HEK-293 cells were passaged and replated on 12-mm glass coverslips located in 9.6-cm plastic dishes filled with 10 ml of Minimum Essential Medium (MEM, Gibco) supplemented with 158 mg/l sodium bicarbonate, 2 mM glutamine (Gibco), 100 U/ml penicillin-streptomycin (Gibco), and 10% foetal calf serum (Gibco). Cultures were maintained at 37° C. in a humidified […]/5% CO2 atmosphere for 2-3 days.
(§2) Transfection with recombinant rat GABAA receptors was carried out as described in detail (Korpi and Lüddens, 1993, Lüddens and Korpi, 1995b). Briefly, HEK 293 cells were transfected in triple combinations using the phosphate precipitation method with rat GABAA receptor cDNAs in eukaryotic expression vectors (Pritchett, 1990) for the α, β and γ subunits. For optimal receptor expression, final concentrations (μg vector DNA per 9.6 cm tissue culture plate) were: α1, 2; α2 4.8; α3, 1.2; α4, 10; α5, 0.8; β2, 0.4; and γ2S, 0.3. The γ2S variant is abbreviated γ2 in the remainder of the text. To identify transfected cells all subunit combinations were co-transfected with 1 μg per plate of pNI-EGFP.
(§3) Two days after transfection single coverslips containing HEK 293 cells were placed in a recording chamber mounted on the movable stage of a fluorescence microscope (Olympus IX70) and perfused with a defined saline solution containing (in mM): 130 NaCl, 5.4 KCl, 2 CaCl2, 2 MgSO4, 10 glucose, 5 sucrose, and 10 HEPES (free acid), pH adjusted to 7.35 with about 35 mM NaOH. Transfected cells were identified by their green fluorescence due to the expression of the pNI-EGFP vector and ligand-mediated membrane currents of these cells were studied in the whole-cell configuration of the patch-clamp technique (Hamil et al., 1981). Patch-clamp pipettes were pulled from hard borosilicate capillary glass (0.5 mm ID, 1.5 mm OD, Vitrex, Science Products GmbH, Hofheim, Germany) using a horizontal puller (Sutter Instruments, CA, Model P-97) in a multi-stage process.
(§4) Seal resistances >1 GΩ were routinely obtained by applying gentle suction to the pipettes. Membrane rupture was monitored electrically as an increase in capacity. Pipette capacitance, membrane capacitance, and series resistance were electronically compensated to achieve minimal capacitative transients. A series resistance compensation of >60% was regularly used.
(§5) In all cells recorded the presence of the γ2 subunit in the heteropentamere was monitored by the application of 1 μM zolpidem plus the EC20 of GABA before testing the experimental drugs.
(§6) Responses of the cells were recorded by a patch-clamp amplifier (EPC-8, HEKA-Electronic, Lambrecht, Germany) in conjunction with a standard personal computer and the pClamp 8.1 software package (Axon Instruments, Foster City, Calif.). The standard holding-potential for the cells was −40 mV. Whole cell currents were low-pass filtered by an eight-pole Bessel filter at 5 or 3 kHz before being digitised by a Digidata 1322A interface (Axon Instruments, Foster City, Calif.) and recorded by the computer at a sampling rate of at least […].
(§7) Efficacy, potency, and GABAA receptor a subunit specificity of the new compound ELB139 was tested with the whole cell configuration of the patch-clamp technique by applying increasing drug concentration together with GABA of the approximate EC20 on green fluorescing cells. BZ binding site specificity of the new compound was tested on the same cells in an identical experimental setting with additionally applying 10 μM Ro15-1788.

[3] = target: T2, recombinant rat α4β2γ2 GABAA receptors (Rattus norvegicus, UniProt P28471); test: Whole-cell patch-clamp, modulation of GABA (EC20)-induced currents in transfected HEK 293 cells, α4β2γ2; type: cell-based
T2 construct: expressed in transfected cells; host or cells: HEK 293
Experimental: as §1, §2
as §3, with “Patch-clamp pipettes were pulled from hard borosilicate capillary glass (0.5 mm ID, 1.5 mm OD, Vitrex, Science Products GmbH, Hofheim, Germany) using a horizontal puller (Sutter Instruments, CA, Model P-97) in a multi-stage process.” left out
Seal resistances >1 GΩ were routinely obtained by applying gentle suction to the pipettes. Membrane rupture was monitored electrically as an increase in capacity. […]
In all cells recorded the presence of the γ2 subunit in the heteropentamere was monitored by the application of 1 μM zolpidem plus the EC20 of GABA before testing the experimental drugs. […]

[4] = tested on: extracellular serotonin in the striatum of rats; test: Microdialysis in the striatum of rats, reversal by flumazenil (Example 6); type: in vivo, rat
Experimental: The day before the experiment, male rats were anaesthetised with chloral hydrate (3.6%, 1 ml/100 g i.p.) and placed in a stereotaxic frame to implant a microdialysis guide cannula (CMA/12, Carnegie Medicine, Sweden). Scalp was incised in the median anterior-posterior direction between lambda and bregma and a small hole was drilled into the skull. The stereotaxic coordinates were AP=+1.0 mm, L=−3.0 mm from bregma and 1.5 mm from the skull surface for the striatum according to the atlas of Paxinos and Watson, (1986) (1). Dental cement (Sinfony(2)) was used to fix the guide cannula and anchor screws to the cranium. During the surgery rectal temperature was maintained at 37° C. using a heating blanket.
The day before the experiment the microdialysis probe (CMA/12, membrane length 4 mm, Carnegie Medicin, Sweden) was inserted into the striatum through the guide cannula. […] Microvials were stored in a fraction collector (CMA/170) at a temperature of 8° C. until analysed. […]
Dialysates were directly analysed by reverse-phase high-performance liquid chromatography with electrochemical detection (HPLC-EC). […]
Therefore data of each animal were expressed as percentages. Data from dialysates before administering the substances were averaged, and the mean set as 100%; all individual values were calculated accordingly.

[5] = target: T3, recombinant rat α1β2γ2 GABAA receptors (Rattus norvegicus, UniProt P62813); test: Whole-cell patch-clamp, modulation of GABA (EC20)-induced currents in transfected HEK 293 cells, α1β2γ2; type: cell-based
T3 construct: expressed in transfected cells; host or cells: HEK 293
Experimental: as §1, §2, §3, §4, §5, §6, §7

T2 sequence (P28471 36-552): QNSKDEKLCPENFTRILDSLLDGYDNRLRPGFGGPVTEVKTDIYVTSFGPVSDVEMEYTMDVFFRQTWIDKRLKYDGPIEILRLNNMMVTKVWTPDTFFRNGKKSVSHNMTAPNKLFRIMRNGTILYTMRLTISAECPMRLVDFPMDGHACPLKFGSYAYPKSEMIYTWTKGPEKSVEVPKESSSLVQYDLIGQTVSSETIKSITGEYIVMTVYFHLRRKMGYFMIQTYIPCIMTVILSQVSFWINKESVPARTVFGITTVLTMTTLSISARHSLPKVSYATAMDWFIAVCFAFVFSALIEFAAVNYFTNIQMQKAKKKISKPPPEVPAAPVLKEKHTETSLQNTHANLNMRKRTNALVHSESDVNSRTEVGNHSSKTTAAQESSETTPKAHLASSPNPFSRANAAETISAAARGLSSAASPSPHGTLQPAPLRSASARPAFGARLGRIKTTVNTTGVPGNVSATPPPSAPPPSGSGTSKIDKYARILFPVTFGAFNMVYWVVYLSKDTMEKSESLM
T1 sequence (P23576 29-451): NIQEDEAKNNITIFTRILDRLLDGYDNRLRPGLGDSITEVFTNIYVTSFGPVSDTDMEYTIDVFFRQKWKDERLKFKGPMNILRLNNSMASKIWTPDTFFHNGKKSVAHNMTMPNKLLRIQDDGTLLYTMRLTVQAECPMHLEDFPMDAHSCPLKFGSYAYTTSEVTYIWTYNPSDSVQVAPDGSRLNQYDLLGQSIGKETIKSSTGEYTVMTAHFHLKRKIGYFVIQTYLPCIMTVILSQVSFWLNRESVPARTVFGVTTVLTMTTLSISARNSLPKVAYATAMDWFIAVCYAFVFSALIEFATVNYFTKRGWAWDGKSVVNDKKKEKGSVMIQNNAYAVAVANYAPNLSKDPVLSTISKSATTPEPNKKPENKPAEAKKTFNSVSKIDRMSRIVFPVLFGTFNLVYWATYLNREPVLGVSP
T3 sequence (P62813 28-455): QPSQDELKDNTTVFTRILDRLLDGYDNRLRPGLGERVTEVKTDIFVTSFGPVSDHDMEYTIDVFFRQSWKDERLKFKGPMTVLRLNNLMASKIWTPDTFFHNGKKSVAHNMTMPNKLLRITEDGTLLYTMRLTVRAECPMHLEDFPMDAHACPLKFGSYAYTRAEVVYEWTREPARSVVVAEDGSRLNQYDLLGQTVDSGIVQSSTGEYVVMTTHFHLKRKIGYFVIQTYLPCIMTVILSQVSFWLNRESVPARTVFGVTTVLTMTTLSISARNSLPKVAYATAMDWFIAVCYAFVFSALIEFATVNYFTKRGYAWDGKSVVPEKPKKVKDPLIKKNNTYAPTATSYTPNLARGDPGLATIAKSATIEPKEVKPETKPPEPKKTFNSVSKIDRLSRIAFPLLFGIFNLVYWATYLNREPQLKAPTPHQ

O=C1N=C(N2CCCCC2)CN1c1ccc(Cl)cc1 [ELB139, 1-(4-chlorophenyl)-4-piperidinoimidazolin-2-one]
locomotor activity [1]: did not show a significant reduction | modulation of GABA-induced currents (in words) ([2]; ELB139 0.01-30 μM): failed to evoke agonistic or inverse agonistic modulation; also recorded: no agonistic effect; also recorded: not at all active | EC50 ([2]; applied with approximate GABA EC20, read-out: EC50 (ELB139)): > 30 µM | modulation of GABA-induced currents (in words) ([3]; α4-containing receptors, diazepam up to 1 μM, ELB139 at all concentrations tested): unaffected; also recorded: not active | EC50 ([3]; α4β2γ2, applied with approximate GABA EC20, read-out: EC50 (ELB139)): > 30 µM | extracellular serotonin in the striatum compared to mean basal level ([4]; 30 mg/kg i.p.): marked increase | increase of extracellular serotonin after flumazenil ([4]; ELB139 30 mg/kg i.p., flumazenil 10 mg/kg i.p. 40 minutes later): not only reversed but serotonin level even decreases below the mean basal level | concentration at which positive current modulation was observable ([5]; α1-containing receptors): 0.3 µM | maximal positive modulation of GABA-induced current ([5]; α1-containing receptors, maximum at 30 μM (ELB139), at 1 μM (diazepam)): 1.6±0.08 fold and 1.6 fold | concentration at which significant agonistic effects were noticeable ([5]; α1β2γ2): about 1 μM | EC50 ([5]; α1β2γ2, applied with approximate GABA EC20, read-out: EC50 (ELB139)): 3.8 µM | effect of 10 μM Ro15-1788 on the current enhancement by the compound ([5]; α1β2γ2, co-applied 10 μM Ro15-1788 (flumazenil)): completely abolished | Potentiation* (ELB139) ([5]; α1β2γ2, with GABA EC20, graphically determined): 1.6 ± 0.08
